Data as given in ChEMBL document CHEMBL4725251, “Structure-activity relationships of tubulysin analogues” (Bioorg Med Chem Lett, 2020).
pEC50: −log10 of the molar value.

Columns and labels:
DEL = experiment: Antiproliferative against human DEL cells incubated for 96 hrs by cellTiter-Glo assay; format: functional, cell-based
Tubulin (Homo sapiens) = Tubulin (Homo sapiens) (UniProt P68371+Q9H4B7+P0DPH7+P68366+Q13509+Q71U36+P04350+Q3ZCM7+P07437+P68363+Q9BQE3+Q6PEY2+Q13885+Q9BVA1+Q9BUF5); experiment: Binding affinity to tubulin (unknown origin) by fluorescence polarization displacement assay; format: protein-complex assay
[1] = Antiproliferative against human DEL/BVR cells incubated for 96 hrs by cellTiter-Glo assay; format: functional, cell-based
L-540 = experiment: Antiproliferative against human L540cy cells incubated for 96 hrs by cellTiter-Glo assay; format: functional, cell-based; details: L-540, 96 h
L-428 = experiment: Antiproliferative against human L428 cells incubated for 96 hrs by cellTiter-Glo assay; format: functional, cell-based; details: L-428, 96 h

Structure (SMILES) | pEC50 (DEL) | relative binding affinity (RBA) (Tubulin (Homo sapiens)) | pEC50 [1] | pEC50 (L-540) | pEC50 (L-428)
CCO[C@H](C[C@H](C(C)C)N(C)C(=O)[C@@H](NC(=O)[C@H]1CCCCN1C)[C@@H](C)OC(C)(C)C)c1nc(C(=O)N[C@@H](Cc2ccccc2)C[C@H](C)C(=O)O)cs1 | 10.00 | 0.83 | 9.40 | 10.00 | 
CC[C@H](C)[C@H](NC(=O)[C@H]1CCCCN1C)C(=O)N(C)[C@H](C[C@@H](OC(C)=O)c1nc(C(=O)N[C@@H](Cc2ccccc2)C[C@H](C)C(=O)O)cs1)C(C)C |  |  |  | 10.10 | 10.40
CCO[C@H](C[C@H](C(C)C)N(C)C(=O)[C@H](C)NC(=O)[C@H]1CCCCN1C)c1nc(C(=O)N[C@@H](Cc2ccccc2)C[C@H](C)C(=O)O)cs1 | 7.68 | 0.03 | 6.38 | 6.96 | 
C=CCO[C@H](C[C@H](C(C)C)N(C)C(=O)[C@@H](NC(=O)[C@H]1CCCCN1C)[C@@H](C)CC)c1nc(C(=O)N[C@@H](Cc2ccccc2)C[C@H](C)C(=O)O)cs1 |  | 0.88 |  | 9.92 | 9.82
CCO[C@H](C[C@H](C(C)C)N(C)C(=O)[C@@H](NC(=O)[C@H]1CCCCN1C)[C@@H](C)CC)c1nc(C(=O)N[C@@H](Cc2ccccc2)C[C@H](C)C(=O)O)cs1 | 10.40 | 0.27 | 9.00 | 9.40 | 9.89
C=C(C)CO[C@H](C[C@H](C(C)C)N(C)C(=O)[C@@H](NC(=O)[C@H]1CCCCN1C)[C@@H](C)CC)c1nc(C(=O)N[C@@H](Cc2ccccc2)C[C@H](C)C(=O)O)cs1 |  | 0.43 |  | 10.22 | 9.92
CCO[C@H](C[C@H](C(C)C)N(C)C(=O)[C@@H](NC(=O)C12CC(CCN1C)C2)[C@@H](C)CC)c1nc(C(=O)N[C@@H](Cc2ccccc2)C[C@H](C)C(=O)O)cs1 | 9.70 | 0.23 | 8.70 | 9.00 | 
CCO[C@H](C[C@H](C(C)C)N(C)C(=O)[C@@H](NC(=O)[C@H]1CCCCN1C)C1CCC1)c1nc(C(=O)N[C@@H](Cc2ccccc2)C[C@H](C)C(=O)O)cs1 | 7.89 | 0.03 | 7.05 | 7.62 | 
CCO[C@H](C[C@H](C(C)C)N(C)C(=O)[C@@H](NC(=O)[C@H]1CCCCN1C)C1CCCC1)c1nc(C(=O)N[C@@H](Cc2ccccc2)C[C@H](C)C(=O)O)cs1 | 10.00 | 0.45 | 9.00 | 9.70 | 
CC[C@H](C)[C@H](NC(=O)[C@H]1CCCCN1C)C(=O)N(C)[C@H](C[C@@H](OC(=O)CC(C)C)c1nc(C(=O)N[C@@H](Cc2ccccc2)C[C@H](C)C(=O)O)cs1)C(C)C |  | 0.26 |  | 10.22 | 9.96
CCO[C@H](C[C@H](C(C)C)N(C)C(=O)[C@@H](NC(=O)[C@H]1CCCCN1C)[C@@H](C)OC)c1nc(C(=O)N[C@@H](Cc2ccccc2)C[C@H](C)C(=O)O)cs1 | 9.00 | 0.03 | 7.18 | 8.22 | 
CC[C@H](C)[C@H](NC(=O)[C@H]1CCCCN1C)C(=O)N(C)[C@H](C[C@@H](OCC(C)=O)c1nc(C(=O)N[C@@H](Cc2ccccc2)C[C@H](C)C(=O)O)cs1)C(C)C |  | 0.27 |  | 9.22 | 9.00
CCO[C@H](C[C@H](C(C)C)N(C)C(=O)[C@@H](NC(=O)C1CCC(F)(F)CN1C)[C@@H](C)CC)c1nc(C(=O)N[C@@H](Cc2ccccc2)C[C@H](C)C(=O)O)cs1 (mixture of isomers) | 8.05 | 0.07 | 7.18 | 7.82 | 
CCO[C@H](C[C@H](C(C)C)N(C)C(=O)[C@@H](NC(=O)[C@H]1[C@@H]2CC[C@@H](C2)N1C)[C@@H](C)CC)c1nc(C(=O)N[C@@H](Cc2ccccc2)C[C@H](C)C(=O)O)cs1 | 8.70 | 0.08 | 7.82 | 8.10 | 
CCO[C@H](C[C@H](C(C)C)N(C)C(=O)[C@@H](NC(=O)[C@H]1CCCCN1C)[C@H](C)OC(C)(C)C)c1nc(C(=O)N[C@@H](Cc2ccccc2)C[C@H](C)C(=O)O)cs1 | 7.77 | 0.06 | 6.91 | 7.09 | 
CCO[C@H](C[C@H](C(C)C)N(C)C(=O)[C@@H](NC(=O)[C@H]1CCCCN1C)C1CCCCC1)c1nc(C(=O)N[C@@H](Cc2ccccc2)C[C@H](C)C(=O)O)cs1 | 9.70 | 0.4 | 8.22 | 9.00 | 
CCCC(=O)O[C@H](C[C@H](C(C)C)N(C)C(=O)[C@@H](NC(=O)[C@H]1CCCCN1C)[C@@H](C)CC)c1nc(C(=O)N[C@@H](Cc2ccccc2)C[C@H](C)C(=O)O)cs1 |  | 0.52 |  | 10.40 | 10.30
CCO[C@H](C[C@H](C(C)C)N(C)C(=O)[C@@H](NC(=O)C1CN(C)CCN1C)[C@@H](C)CC)c1nc(C(=O)N[C@@H](Cc2ccccc2)C[C@H](C)C(=O)O)cs1 (mixture of isomers) |  |  |  | < 6.00 | 
CCO[C@H](C[C@H](C(C)C)N(C)C(=O)[C@@H](NC(=O)[C@@]1(C)CCCN1C)[C@@H](C)CC)c1nc(C(=O)N[C@@H](Cc2ccccc2)C[C@H](C)C(=O)O)cs1 | 9.52 | 0.38 | 8.70 | 9.00 | 
CC[C@H](C)[C@H](NC(=O)[C@H]1CCCCN1C)C(=O)N(C)[C@H](C[C@@H](OC(=O)C(C)C)c1nc(C(=O)N[C@@H](Cc2ccccc2)C[C@H](C)C(=O)O)cs1)C(C)C |  | 0.36 |  | 10.00 | 9.92
C#CCO[C@H](C[C@H](C(C)C)N(C)C(=O)[C@@H](NC(=O)[C@H]1CCCCN1C)[C@@H](C)CC)c1nc(C(=O)N[C@@H](Cc2ccccc2)C[C@H](C)C(=O)O)cs1 |  | 0.59 |  | 9.77 | 9.39
CC[C@H](C)[C@H](NC(=O)[C@H]1CCCCN1C)C(=O)N(C)[C@H](C[C@@H](OC)c1nc(C(=O)N[C@@H](Cc2ccccc2)C[C@H](C)C(=O)O)cs1)C(C)C |  | 0.42 |  | 9.92 | 9.32
CCC(=O)O[C@H](C[C@H](C(C)C)N(C)C(=O)[C@@H](NC(=O)[C@H]1CCCCN1C)[C@@H](C)CC)c1nc(C(=O)N[C@@H](Cc2ccccc2)C[C@H](C)C(=O)O)cs1 |  | 0.97 |  | 10.22 | 10.40
CC[C@H](C)[C@H](NC(=O)[C@H]1CCCCN1C)C(=O)N(C)[C@H](C[C@@H](OCc1ccccc1)c1nc(C(=O)N[C@@H](Cc2ccccc2)C[C@H](C)C(=O)O)cs1)C(C)C |  | 0.07 |  | 9.40 | 9.24
CCO[C@H](C[C@H](C(C)C)N(C)C(=O)CNC(=O)[C@H]1CCCCN1C)c1nc(C(=O)N[C@@H](Cc2ccccc2)C[C@H](C)C(=O)O)cs1 | 5.48 |  | 5.02 | 5.34 | 
CCO[C@H](C[C@H](C(C)C)N(C)C(=O)[C@@H](NC(=O)[C@H]1CCCCN1C)[C@H](C)CC)c1nc(C(=O)N[C@@H](Cc2ccccc2)C[C@H](C)C(=O)O)cs1 | 8.52 | 0.007 | 7.21 | 7.89 | 
CCO[C@H](C[C@H](C(C)C)N(C)C(=O)[C@@H](NC(=O)[C@H]1CCCCN1C)[C@H](C)OC)c1nc(C(=O)N[C@@H](Cc2ccccc2)C[C@H](C)C(=O)O)cs1 | 9.00 | 0.001 | 7.77 | 8.30 | 
CCCO[C@H](C[C@H](C(C)C)N(C)C(=O)[C@@H](NC(=O)[C@H]1CCCCN1C)[C@@H](C)CC)c1nc(C(=O)N[C@@H](Cc2ccccc2)C[C@H](C)C(=O)O)cs1 |  | 0.68 |  | 9.89 | 9.41
CCO[C@H](C[C@H](C(C)C)N(C)C(=O)[C@@H](NC(=O)[C@H]1CCCCN1C)C(CC)CC)c1nc(C(=O)N[C@@H](Cc2ccccc2)C[C@H](C)C(=O)O)cs1 | 9.40 | 0.2 | 8.40 | 9.00 | 
